Measured values as given in US6835382B2, “Ii peptide therapeutics to enhance antigen presentation” (University of Massachusetts, priority 1996, dated 2004).

T1: murine E^d MHC class II allele (Mus musculus, UniProt P01904+P01915)
T1 sequence (P01904 26-255): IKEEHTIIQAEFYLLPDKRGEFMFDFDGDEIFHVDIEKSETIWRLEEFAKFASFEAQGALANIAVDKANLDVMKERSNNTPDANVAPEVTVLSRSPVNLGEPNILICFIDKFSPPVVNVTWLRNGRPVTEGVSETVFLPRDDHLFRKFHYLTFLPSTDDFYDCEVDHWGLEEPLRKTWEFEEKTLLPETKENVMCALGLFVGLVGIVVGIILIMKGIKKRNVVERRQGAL
T1 sequence (P01915 27-264 limits assumed): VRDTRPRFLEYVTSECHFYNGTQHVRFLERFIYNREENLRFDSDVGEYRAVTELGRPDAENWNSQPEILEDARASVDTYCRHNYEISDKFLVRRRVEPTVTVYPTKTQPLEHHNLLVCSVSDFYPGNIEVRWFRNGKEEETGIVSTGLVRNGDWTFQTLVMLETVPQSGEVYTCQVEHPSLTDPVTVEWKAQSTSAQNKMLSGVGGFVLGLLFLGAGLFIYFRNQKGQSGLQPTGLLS


Assays:
[1] = test system: murine E^k MHC class II allele; test: simultaneous assay, E^k allele (CH27 APC, TPc9.1 T hybridoma, THMCC82-103 or PGCC81-104); format: cell-based; conditions: Table 1, 0.075 μM THMCC82-103, supernatant 1:2
Procedure: (§1) Examples 1-4 (Tables 1-18) will be briefly considered in order to establish the concept of tolerance discussed above. These examples describe experimental results observed in the so-called “simultaneous” assay. In the simultaneous assay four principle components are cultured together for a 24 hour period. The components of this culture, which are added simultaneously, are: (a) an antigenic peptide characterized by the ability to bind specifically into the antigenic peptide binding groove of an MHC class II molecule, (b) mitomycin C-treated, MHC class II-positive antigen presenting cells (APC) bearing the MHC class II allele required for binding of the specific antigenic peptide, and presentation of the specific antigenic peptide to the antigenic peptide-specific T cell hybridoma, (c) an effector compound of the present invention, and (d) an MHC class II allele-restricted T cell hybridoma specific for the antigenic peptide and the MHC class II allele restricting its presentation. Following incubation of this primary culture, an aliquot of its supernatant is transferred into a second culture well for incubation with an interleukin-dependent lymphoblastoid cell line. The degree of stimulation of that second, indicator cell by the interleukins which had been released from the activated T cell hybridoma in the primary culture is measured by quantitating tritiated thymidine deoxyribose {[^3H]TdR} uptake into the DNA of the HT-2 indicator cells of that second culture.
(§2) In the “simultaneous assay” the four components of the assay are cultured together for a 24 h period. The components of this primary culture, added at the same time or simultaneously, are: (a) the antigenic peptide, (b) mitomycin C-treated, MHC class II-positive antigen presenting cells (APC) with the MHC class II allele required for binding of the specific antigenic peptide and its presentation to the antigenic peptide-specific T cell hybridoma, (c) an AE101 series effector peptide, and (d) MHC class II allele-restricted T cell hybridoma specific for the antigenic peptide and the MHC class II allele restricting its presentation. At the end of the incubation of this primary culture, an aliquot of its supernatant is transferred into a second culture well for incubation with an interleukin-dependent lymphoblastoid cell line. The degree of stimulation of that second, indicator cell by the interleukins which had been released from the activated T cell hybridoma in the primary culture is measured by quantitating tritiated thymidine deoxyribose {[^3H]TdR} uptake into the DNA of the HT-2 indicator cells of that second culture.
(§3) For these various assays, the following antigenic peptides were used: HEL11-25, hen egg lysozyme 11-25, AMKRHGLDNYRGYSL(A^d) (SEQ ID NO:5); HEL46-61, hen egg lysozyme 46-61, NTDGSTDYGILQINSR(Ak) (SEQ ID NO:6); HEL106-116, hen egg lysozyme 106-116, NAWVAWRNRCK (E^d) (SEQ ID NO:7); PGCC81-104, pigeon cytochrome c 81-104, […] (Ek) (SEQ ID NO:8), and THMCC82-103, tobacco hornworm moth cytochrome c 82-103, […] (Ek) (SEQ ID NO:9). AE101 series peptides were obtained from commercial sources. In general, the purity and composition of each peptide was confirmed by HPLC separation and mass spectrometry. The native protein antigens were HEL, hen egg lysozyme, and PGCC, pigeon cytochrome C. They were obtained from commercial sources.
(§4) For the experiments of these Examples, several T cell hybridomas, which are specific for certain antigenic peptides, were used. The TPc9.1 T hybridoma is specific for pigeon cytochrome C 81-104 peptide presented on the murine class II MHC allele E^k. The TPc9.1 hybridoma responds heteroclitically to tobacco hornworm moth cytochrome c 82-103 on E^k. The 3A9 T hybridoma is specific for hen egg lysozyme 46-61 on A^k. The 9.30.B2 hybridoma is specific for hen egg lysozyme 11-25 on A^d, and the G28.C9 hybridoma is specific for hen egg lysozyme 106-116 on E^d. […]

[2] = target: T1, murine E^d MHC class II allele; test: simultaneous assay, E^d allele (A20 APC, G28.C9 T hybridoma, HEL106-116; HT-2 [3H]TdR readout); format: cell-based; design: The A20 and CH27 B cell lymphoma lines express H-2^d and H-2^k alleles, respectively; endogenous in cells; host or cells: A20 B cell lymphoma (mitomycin C-treated or paraformaldehyde-fixed); conditions: Table 1, 0.4 μM HEL106-116, supernatant 1:4
Procedure: as §1, §2, §3, §4

HLA-DR1 molecules [3] = test: release of biotin-labeled hMBP(90-102) from HLA-DR1 without unlabeled antigenic peptide (assay I); format: binding, human; conditions: for Relative Release: Table 36, fraction of o.d. of positive control (PBS only = 1.0; negative control = 0.0)
HLA-DR1 molecules [4] = test: release of biotin-labeled hMBP(90-102) from HLA-DR1 in the presence of unlabeled hMBP (assay II); format: binding, human
[5] = target: soluble HLA-DR1 (HLA-DR alpha truncated after Asn192 with a C-terminal nine amino acid HA epitope tail; HLA-DR1 beta truncated after Lys198), made in Baculovirus-infected insect cells (human); test: release ELISA: soluble HLA-DR1 tethered by 12CA5 and preloaded with biotin-hMBP(90-102); AE peptide 64 uM, 1 h 37 C, no unlabeled peptide; biotin still bound read by avidin-HRP (1.0 = PBS control, 0.0 = no DR1; low value = released)
[6] = target: soluble HLA-DR1 (HLA-DR alpha truncated after Asn192 with a C-terminal nine amino acid HA epitope tail; HLA-DR1 beta truncated after Lys198), made in Baculovirus-infected insect cells (human); test: loading ELISA: empty tethered HLA-DR1 with biotin-hMBP(90-102) 50 uM and AE peptide 64 uM, 1 h 37 C; biotin bound read by avidin-HRP
[7] = target: soluble HLA-DR1 (HLA-DR alpha truncated after Asn192 with a C-terminal nine amino acid HA epitope tail; HLA-DR1 beta truncated after Lys198), made in Baculovirus-infected insect cells (human); test: exchange ELISA: tethered HLA-DR1 preloaded with unlabeled hMBP(90-102) 50 uM, washed; AE peptide plus biotin-hMBP(90-102) 50 uM, 1 h 37 C; biotin bound as fraction of positive control (overnight loading)
[8] = AE peptide 16 μM (second value)

Molecule	Times Baseline Response, E^k [1, 8]	Times Baseline Response, E^k ([1]; AE peptide 64 μM (first value))	Times Baseline Response, E^d [2, 8]	Times Baseline Response, E^d ([2]; AE peptide 64 μM (first value))	Relative Release (HLA-DR1 molecules [3]; AE101 series compound 64 μM)	Relative Release (fraction of positive control o.d.) [5]	also measured
RMKLPKSAKPVSQMR [AE102]	0.8	1.0	4.2	13.3	–	–	–
SAKPVSQMR [AE105]	0.8	0.7	1.1	4.5	0.16	–	–
YRMKLPKSAK [AE108]	0.9	1.2	11.6	32.0	1.14	–	Relative Release, Without unlabeled hMBP(90-102), 1 μM (HLA-DR1 molecules [3]; Table 37, AE101 series compound 1 μM, no unlabeled hMBP(90-102)): 0.52; Relative Release, Without unlabeled hMBP(90-102), 64 μM (HLA-DR1 molecules [3]; Table 37, AE101 series compound 64 μM, no unlabeled hMBP(90-102)): 0.31; Relative Release, With unlabeled hMBP(90-102), 1 μM (HLA-DR1 molecules [4]; Table 37, AE101 series compound 1 μM, unlabeled hMBP(90-102) 250 μM): 0.00; Relative Release, With unlabeled hMBP(90-102), 64 μM (HLA-DR1 molecules [4]; Table 37, AE101 series compound 64 μM, unlabeled hMBP(90-102) 250 μM): 0.14
YRMKLPKSAKPVSQ [AE106]	0.9	2.0	4.4	16.9	−0.12	–	release of hMBP(90-102) from HLA-DR1 (HLA-DR1 molecules [3]; AE peptide at 125 nM, additional experiments): completely release
unlabeled hMBP(90-102): human myelin basic protein (hMBP) peptide (90-102), antigenic peptide binding HLA-DR1, unlabeled (HLIRLFSRDAPGR) [reference compound]	–	–	–	–	–	–	release of biotin-labeled hMBP(90-102) (Relative Release) (HLA-DR1 molecules [4]; unlabeled hMBP(90-102) (250 μM) alone without AE101 series compounds): 0.81
KLPKSAKPVSQMR [AE103]	–	–	–	–	–	0.01	–
Ac-LRMKLPKPP-NH2 [AE401]	–	–	–	–	–	0.16	Relative Enhancement (of biotin-hMBP(90-102) binding to empty HLA-DR1) (relative to no AE peptide = 1) [6]: 4.29; Relative Binding (of biotin-hMBP(90-102) to HLA-DR1) (fraction of positive control o.d.) [7]: 0.45
SAKPVSQMR [AE105]	–	–	–	–	–	–	Fraction of biotin-hMBP still bound (fraction of positive control o.d.) [5]: 0.16
YRMKLPKSAKPVSQ [AE106]	–	–	–	–	–	-0.12	–
PKSAKPVSQMR [AE104]	–	–	–	–	–	0.02	–
